In patent US20240115547A1, “PSYCHOTROPIC AGENTS AND USES THEREOF” (LB PHARMACEUTICALS INC., priority 2021, published 2024):

Tested on: Dopamine (e.g., D2/D3)
Assay: Dopamine RO % by raclopride PET after LB-102, various dosage regimens (Example 3)
Type: in vivo, human
Details: for Dopamine RO % (Caudate + Putamen): group mean
Method: Healthy subjects were dosed orally with LB102 of 50 mg QD (n=4), 75 mg QD (n=4), 100 mg QD (n=4), 50 mg SS (n=2), or 100 mg SS (n=2). Subjects were, on average, 33 years old. Subjects dosed QD were given a single dose on day 1 after which PET scans were obtained; and subjects dosed SS, i.e., steady state, were dosed once a day for 4 days and PET scans were obtained after dosing on Day 4.
Dynamic […] raclopride PET scans were obtained 0 h, 2.5 h, 7.5 h, and 23.5 h after LB-102 administration for the 50 mg and 100 mg QD treatment groups and after LB-102 administration of Day 4 for the 50 mg SS and 100 mg SS treatment groups; and 0 h, 3.5 h, 23.5 h, and 47.5 h after LB-102 administration for the 75 mg QD treatment group. Dopamine % RO were calculated using the STRM method (https://pubmed.ncbi.nlm.nih.gov/9345505/, which is incorporated herein by reference) and the combined RO % (average of caudate and putamen RO %) are shown as squares FIGS. 5A (50 mg QD), 5B (75 mg QD), 5C (100 mg QD); and FIGS. 6A (50 mg SS Day 4) and 6B (100 mg SS Day 4); and summarized in Table 3-A below.
Dynamic ^11C raclopride PET scan results for calculation of dopamine RO % were measured in caudate, putamen, thalamus, and temporal lobe of each subject tested, and are summarized in Tables 3-B to 3-F below.

[1] = 50 mg QD, Subject 1, 2.5 h after LB-102 admin.
[2] = 50 mg QD, Subject 1, 7.5 h after LB-102 admin.
[3] = 50 mg QD, Subject 1, 23.5 h after LB-102 admin.
[4] = 50 mg QD, Subject 2, 2.5 h after LB-102 admin.
[5] = 50 mg QD, Subject 2, 7.5 h after LB-102 admin.
[6] = 50 mg QD, Subject 2, 23.5 h after LB-102 admin.
[7] = 50 mg QD, Subject 3, 7.5 h after LB-102 admin.
[8] = 50 mg QD, Subject 3, 23.5 h after LB-102 admin.
[9] = 50 mg QD, Subject 4, 2.5 h after LB-102 admin.
[10] = 50 mg QD, Subject 4, 7.5 h after LB-102 admin.
[11] = 50 mg QD, Subject 4, 23.5 h after LB-102 admin.
[12] = 50 mg SS (Day 4), Subject 1, ~3 h after LB-102 admin.
[13] = 50 mg SS (Day 4), Subject 1, ~8 h after LB-102 admin.
[14] = 50 mg SS (Day 4), Subject 1, ~24 h after LB-102 admin.
[15] = 50 mg SS (Day 4), Subject 2, ~3 h after LB-102 admin.
[16] = 50 mg SS (Day 4), Subject 2, ~8 h after LB-102 admin.
[17] = 50 mg SS (Day 4), Subject 2, ~24 h after LB-102 admin.
[18] = 75 mg QD, Subject 1, 3.5 h after LB-102 admin.
[19] = 75 mg QD, Subject 1, 23.5 h after LB-102 admin.
[20] = 75 mg QD, Subject 1, 47.5 h after LB-102 admin.
[21] = 75 mg QD, Subject 2, 3.5 h after LB-102 admin.
[22] = 75 mg QD, Subject 2, 23.5 h after LB-102 admin.
[23] = 75 mg QD, Subject 2, 47.5 h after LB-102 admin.

CCN1CCCC1CNC(=O)c1cc(S(=O)(=O)CC)c(NC)cc1OC (stereo not shown) [LB-102]
Dopamine RO % (Caudate + Putamen) (50 mg QD, 0 h after LB-102 administration): 0% | Dopamine RO % (Caudate + Putamen) (50 mg QD, 3 h after LB-102 administration): 24% | Dopamine RO % (Caudate + Putamen) (50 mg QD, 8 h after LB-102 administration): 38% | Dopamine RO % (Caudate + Putamen) (50 mg QD, 24 h after LB-102 administration): 42% | Dopamine RO % Caudate [1]: 26% | Dopamine RO % Putamen [1]: 23% | Dopamine RO % Temporal lobe [1]: 25% | Dopamine RO % Thalamus [1]: 40% | Dopamine RO % Caudate [2]: 52% | Dopamine RO % Putamen [2]: 47% | Dopamine RO % Temporal lobe [2]: 32% | Dopamine RO % Thalamus [2]: 48% | Dopamine RO % Caudate [3]: 58% | Dopamine RO % Putamen [3]: 48% | Dopamine RO % Temporal lobe [3]: 30% | Dopamine RO % Thalamus [3]: 39% | Dopamine RO % Caudate [4]: 28% | Dopamine RO % Putamen [4]: 25% | Dopamine RO % Temporal lobe [4]: 16% | Dopamine RO % Thalamus [4]: 42% | Dopamine RO % Caudate [5]: 42% | Dopamine RO % Putamen [5]: 37% | Dopamine RO % Temporal lobe [5]: 14% | Dopamine RO % Thalamus [5]: 31% | Dopamine RO % Caudate [6]: 45% | Dopamine RO % Putamen [6]: 36% | Dopamine RO % Temporal lobe [6]: 11% | Dopamine RO % Thalamus [6]: 23% | Dopamine RO % Caudate [7]: 36% | Dopamine RO % Putamen [7]: 25% | Dopamine RO % Temporal lobe [7]: 20% | Dopamine RO % Thalamus [7]: 42% | Dopamine RO % Caudate [8]: 53% | Dopamine RO % Putamen [8]: 37% | Dopamine RO % Temporal lobe [8]: 18% | Dopamine RO % Thalamus [8]: 45% | Dopamine RO % Caudate [9]: 23% | Dopamine RO % Putamen [9]: 19% | Dopamine RO % Temporal lobe [9]: 23% | Dopamine RO % Thalamus [9]: 26% | Dopamine RO % Caudate [10]: 43% | Dopamine RO % Putamen [10]: 34% | Dopamine RO % Temporal lobe [10]: 43% | Dopamine RO % Thalamus [10]: 28% | Dopamine RO % Caudate [11]: 45% | Dopamine RO % Putamen [11]: 34% | Dopamine RO % Temporal lobe [11]: 45% | Dopamine RO % Thalamus [11]: 18% | Dopamine RO % Caudate [12]: 75% | Dopamine RO % Putamen [12]: 67% | Dopamine RO % Temporal lobe [12]: 18% | Dopamine RO % Thalamus [12]: 44% | Dopamine RO % Caudate [13]: 78% | Dopamine RO % Putamen [13]: 69% | Dopamine RO % Temporal lobe [13]: 17% | Dopamine RO % Thalamus [13]: 40% | Dopamine RO % Caudate [14]: 75% | Dopamine RO % Putamen [14]: 66% | Dopamine RO % Temporal lobe [14]: 35% | Dopamine RO % Thalamus [14]: 30% | Dopamine RO % Caudate [15]: 74% | Dopamine RO % Putamen [15]: 66% | Dopamine RO % Temporal lobe [15]: 26% | Dopamine RO % Thalamus [15]: 37% | Dopamine RO % Caudate [16]: 76% | Dopamine RO % Putamen [16]: 70% | Dopamine RO % Temporal lobe [16]: 25% | Dopamine RO % Thalamus [16]: 43% | Dopamine RO % Caudate [17]: 73% | Dopamine RO % Putamen [17]: 63% | Dopamine RO % Temporal lobe [17]: 34% | Dopamine RO % Thalamus [17]: 56% | Dopamine RO % (Caudate + Putamen) (50 mg SS (once a day for 4 days), 3 h after Day 4 administration): 69% | Dopamine RO % (Caudate + Putamen) (50 mg SS (once a day for 4 days), 24 h after Day 4 administration): 68% | average dopamine (e.g., D2/D3) RO % in caudate, putamen, and thalamus (50 mg SS and 100 mg SS, at least from Day 4 since the treatment began): significantly stabilized | Dopamine RO % (Caudate + Putamen) (75 mg QD, 0 h after LB-102 administration): 0% | Dopamine RO % (Caudate + Putamen) (75 mg QD, 3 h after LB-102 administration): 33% | Dopamine RO % (Caudate + Putamen) (75 mg QD, 24 h after LB-102 administration): 55% | Dopamine RO % Caudate [18]: 27% | Dopamine RO % Putamen [18]: 20% | Dopamine RO % Temporal lobe [18]: 12% | Dopamine RO % Thalamus [18]: 31% | Dopamine RO % Caudate [19]: 70% | Dopamine RO % Putamen [19]: 52% | Dopamine RO % Temporal lobe [19]: 45% | Dopamine RO % Thalamus [19]: 64% | Dopamine RO % Caudate [20]: 53% | Dopamine RO % Putamen [20]: 38% | Dopamine RO % Temporal lobe [20]: 4% | Dopamine RO % Thalamus [20]: 16% | Dopamine RO % Caudate [21]: 53% | Dopamine RO % Putamen [21]: 48% | Dopamine RO % Temporal lobe [21]: 21% | Dopamine RO % Thalamus [21]: 44% | Dopamine RO % Caudate [22]: 58% | Dopamine RO % Putamen [22]: 53% | Dopamine RO % Temporal lobe [22]: 17% | Dopamine RO % Thalamus [22]: 37% | Dopamine RO % Caudate [23]: 45% | Dopamine RO % Putamen [23]: 39% | Dopamine RO % Temporal lobe [23]: 16% | Dopamine RO % Thalamus [23]: 25% | Dopamine RO % Caudate (75 mg QD, Subject 3, 3.5 h after LB-102 admin.): 57%
